pKi: −log10 of the molar value. “Also recorded” adds a separate entry of the source. Marks after values point to notes of the source that are not given here.
What was measured:
[1] = system: CYP2A; set-up: method as in Cyrus et al., 2011 and references herein; details: human; ref Cyrus et al., 2011 and references herein; cited from earlier work
[2] = system: CYP2E; test: Incubation with inhibitors: CZ-hydroxylation in porcine hepatic microsomes; type: in vitro ADME, conventional pig; details: for Ratio of residual activity (substrate + inhibitor versus substrate only), CYP2E CZ: CZ 50 µM, inhibitors SFZ 0.5, α-NFV 0.1 (1 µM), QND 0.1, KET 0.3, DDC 20, 8-MPS 1 µM, mean (SD) of 3; for Inhibition of CZ-hydroxylation by inhibitor: porcine hepatic microsomes
Description: (§1) The inhibitors used were α-NFV, 8-MPS, KET, SFZ, QND, and DDC for CYP1A/2 A, CYP2A, CYP3A, CYP2C, CYP2D, and CYP2E1, respectively. […] All incubations were performed in triplicate.

[3] = system: CYP2A; test: Incubation with inhibitors: CM-hydroxylation in porcine hepatic microsomes; type: in vitro ADME, conventional pig; details: for Ratio of residual activity (substrate + inhibitor versus substrate only), CYP2A CM: CM 1 µM, inhibitors SFZ 0.5, α-NFV 0.1 (1 µM), QND 0.1, KET 0.3, DDC 20, 8-MPS 1 µM, mean (SD) of 3
Description: as §1

[4] = system: CYP3A; test: Incubation with inhibitors: MDZ-hydroxylation in porcine hepatic microsomes; type: in vitro ADME, conventional pig; details: for Ratio of residual activity (substrate + inhibitor versus substrate only), CYP3A MDZ: MDZ 20 µM, inhibitors SFZ 0.5, α-NFV 0.1 (1 µM), QND 0.1, KET 0.3, DDC 20, 8-MPS 1 µM, mean (SD) of 3
Description: as §1

[5] = system: CYP1A; test: Incubation with inhibitors: PH-O-deethylation in porcine hepatic microsomes; type: in vitro ADME, conventional pig; details: PH 20 µM; inhibitors SFZ 0.5, α-NFV 0.1 (1 µM), QND 0.1, KET 0.3, DDC 20, 8-MPS 1 µM; mean (SD) of 3
Description: as §1

[6] = target: T1, CYP2D (Sus scrofa, UniProt O46658); test: Incubation with inhibitors: DXM-O-demethylation in porcine hepatic microsomes; type: in vitro ADME, conventional pig; details: for Ratio of residual activity (substrate + inhibitor versus substrate only), CYP2D DXM: DXM 10 µM, inhibitors SFZ 0.5, α-NFV 0.1 (1 µM), QND 0.1, KET 0.3, DDC 20, 8-MPS 1 µM, mean (SD) of 3; for Inhibition of DXM-O-demethylation by inhibitor: porcine hepatic microsomes
T1 construct: from tissue; host or cells: pig liver microsomes
T1 sequence (O46658 1-500): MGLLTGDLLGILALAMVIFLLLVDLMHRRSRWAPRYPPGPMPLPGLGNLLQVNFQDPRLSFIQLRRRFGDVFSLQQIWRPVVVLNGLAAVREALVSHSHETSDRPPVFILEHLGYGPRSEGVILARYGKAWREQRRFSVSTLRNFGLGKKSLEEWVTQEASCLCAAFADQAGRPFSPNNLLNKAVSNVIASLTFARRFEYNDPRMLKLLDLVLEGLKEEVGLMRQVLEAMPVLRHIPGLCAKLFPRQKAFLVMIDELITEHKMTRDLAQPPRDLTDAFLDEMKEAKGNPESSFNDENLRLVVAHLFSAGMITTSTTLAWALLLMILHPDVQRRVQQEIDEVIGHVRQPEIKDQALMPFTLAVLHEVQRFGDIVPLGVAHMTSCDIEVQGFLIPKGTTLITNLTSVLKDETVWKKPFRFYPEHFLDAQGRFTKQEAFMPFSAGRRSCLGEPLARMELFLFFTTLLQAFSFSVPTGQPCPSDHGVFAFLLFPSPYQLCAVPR
Description: as §1

[7] = system: CYP2E1; set-up: method as in Baranovà et al., 2005; Pratt-hyatt et al., 2010; details: human; ref Baranovà et al., 2005; Pratt-hyatt et al., 2010; cited from earlier work
[8] = system: CYP2C; details: for Ratio of residual activity (substrate + inhibitor versus substrate only), CYP2C TB: TB 200 µM, inhibitors SFZ 0.5, α-NFV 0.1 (1 µM), QND 0.1, KET 0.3, DDC 20, 8-MPS 1 µM, mean (SD) of 3
[9] = system: CYP3A; details: human; ref Cyrus et al., 2011 and references herein; cited from earlier work
[10] = system: porcine intestinal CYP450 enzymes
[11] = system: porcine CYP450; details: outcome of general decision tree, Figure 4
[12] = system: human CYP450; details: Supplementary Table 4; ref Yuan et al., 2002 and references herein; cited from earlier work
[13] = system: porcine intestinal CYP450 enzymes; test: in vitro; details: pig, pool of 16 pigs, n=3, mean (SD)
[14] = system: hepatic CYP450 abundancies; test: Pearson correlation between hepatic CYP450 abundancies and probe activities
[15] = system: CYP2D; set-up: method as in Cyrus et al., 2011 and references herein; details: human; ref Cyrus et al., 2011 and references herein; cited from earlier work
[16] = system: porcine CYP2D25; set-up: method as in Skaanild, 2006; Hosseinpour and Wikvall, 2000; details: ref Skaanild, 2006; Hosseinpour and Wikvall, 2000; cited from earlier work
[17] = system: CYP2D6; set-up: method as in Cyrus et al, 2011; details: ref Cyrus et al, 2011; cited from earlier work

## COc1c2occc2cc2ccc(=O)oc12 [8-methoxypsoralen]
[1]
  pKi: 5.82 to 7.00

## CCN(CC)C(=S)S [Diethyldithiocarbamate, diethyldithiocarbamate]
[2]
  Ratio of residual activity (substrate + inhibitor versus substrate only), CYP2E CZ: 0.87 (0.003)-
  Inhibition of CZ-hydroxylation by inhibitor: decreased
[3]
  Ratio of residual activity (substrate + inhibitor versus substrate only), CYP2A CM: 0.74 (0.079)
[3]; porcine hepatic microsomes
  Inhibition of CM-hydroxylation by inhibitor: decreased
[4]
  Ratio of residual activity (substrate + inhibitor versus substrate only), CYP3A MDZ: 1.15 (0.074)
[5]
  Ratio of residual activity (substrate + inhibitor versus substrate only), CYP1A PH: 1.04 (0.010)
[6]
  Ratio of residual activity (substrate + inhibitor versus substrate only), CYP2D DXM: 0.93 (0.084)
[7]
  pKi: 4.42 to 4.91
[8]
  Ratio of residual activity (substrate + inhibitor versus substrate only), CYP2C TB: 0.87 (0.046)
[8]; porcine hepatic microsomes
  Inhibition of TB-hydroxylation by inhibitor: decreased

## CC(=O)N1CCN(c2ccc(OCC3COC(Cn4ccnc4)(c4ccc(Cl)cc4Cl)O3)cc2)CC1 (centres unmarked) [Ketoconazole, ketoconazole]
[2]
  Inhibition of CZ-hydroxylation by inhibitor: 20%
[4]; porcine hepatic microsomes
  Effect of inhibitor on MDZ-hydroxylation: potent inhibitors
[6]
  Inhibition of DXM-O-demethylation by inhibitor: could not inhibit
[9]
  pKi: […]

## Cc1ncc2n1-c1ccc(Cl)cc1C(c1ccccc1F)=NC2 [MDZ, Midazolam]
[10]; duodenal microsomes, pool of 16 pigs, n=3, mean (SD)
  Duodenum a (Hill coefficient): 1.26 (0.048)
[10]; ileal microsomes, pool of 16 pigs, n=3, mean (SD)
  Ileum a (Hill coefficient): 1.56 (0.45)
[10]; intestinal versus hepatic microsomes
  Vmax in intestinal microsomes as % of the hepatic Vmax: 2%
[10]; jejunal microsomes, pool of 16 pigs, n=3, mean (SD)
  Jejunum a (Hill coefficient): 1.41 (0.043)
[11]
  Enzyme involvement: High affinity: CYP3A
[12]
  Km: 3 to 5 µM
[13]; Duodenum Km, duodenal microsomes
  Km at 10 min: 22.1 µM
[13]; Ileum Km, ileal microsomes
  Km at 10 min: 16.2 µM
[13]; Jejunum Km, jejunal microsomes
  Km at 10 min: 23.1 µM
[14]; level 1 (MDZ 0.50 µM)
  Pearson's correlation coefficient, MDZ activity vs hepatic CYP3A22 abundance: 0.54
[14]; level 2 (MDZ 2.00 µM)
  Pearson's correlation coefficient, MDZ activity vs hepatic CYP3A22 abundance: 0.62
[14]; level 3 (MDZ 5.00 µM)
  Pearson's correlation coefficient, MDZ activity vs hepatic CYP3A22 abundance: 0.69*
[14]; level 4 (MDZ 10.0 µM)
  Pearson's correlation coefficient, MDZ activity vs hepatic CYP3A22 abundance: 0.71*
[14]; level 5 (MDZ 20.0 µM)
  Pearson's correlation coefficient, MDZ activity vs hepatic CYP1A2 abundance: 0.51
  Pearson's correlation coefficient, MDZ activity vs hepatic CYP3A22 abundance: 0.72*
  Pearson's correlation coefficient, MDZ activity vs hepatic CYP3A46 abundance: 0.57
[14]; level 6 (MDZ 50.0 µM)
  Pearson's correlation coefficient, MDZ activity vs hepatic CYP1A2 abundance: 0.56
  Pearson's correlation coefficient, MDZ activity vs hepatic CYP3A22 abundance: 0.65*
  Pearson's correlation coefficient, MDZ activity vs hepatic CYP3A46 abundance: 0.68*

## C=C[C@H]1C[N@@]2CC[C@H]1C[C@@H]2[C@@H](O)c1ccnc2ccc(OC)cc12 [Quinidine, quinidine]
[6]; listed as QND
  Inhibition of DXM-O-demethylation by inhibitor: did not inhibit; also recorded: no inhibition
[15]
  pKi: 6.40 to 7.52
[16]
  Inhibition of porcine CYP2D25: not to inhibit

## Nc1ccc(S(=O)(=O)Nc2ccnn2-c2ccccc2)cc1 [Sulphaphenazole, sulphaphenazole]
[2]
  Ratio of residual activity (substrate + inhibitor versus substrate only), CYP2E CZ: 1.03 (0.061)
[3]
  Ratio of residual activity (substrate + inhibitor versus substrate only), CYP2A CM: 1.05 (0.023)
[4]
  Ratio of residual activity (substrate + inhibitor versus substrate only), CYP3A MDZ: 1.20 (0.050)
[5]
  Ratio of residual activity (substrate + inhibitor versus substrate only), CYP1A PH: 1.09 (0.030)
[6]
  Ratio of residual activity (substrate + inhibitor versus substrate only), CYP2D DXM: 0.97 (0.080)
[17]
  Inhibition of CYP2D6 in men: do not significantly inhibit
[8]
  Ratio of residual activity (substrate + inhibitor versus substrate only), CYP2C TB: 0.98 (0.135)
